In paper PMC7316745, “A small-molecule ARTS mimetic promotes apoptosis through degradation of both XIAP and Bcl-2” (Cell Death & Disease, 2020):

Key:
XIAP = molecular target: T1, XIAP (Homo sapiens, UniProt P98170); test: microscale thermophoresis (MST); assay type: binding
T1 construct: recombinant untagged XIAP, NT650-labelled (maleimide coupling)

COLO678 = test: cells; set-up: Sulforhodamine B growth/viability assay on tumour cell line panel (Oncolead), six dilutions, compound replenished daily; conditions: Homo sapiens, COLO-678; 72 h, SRB; read-out: Supplementary table 1 / A4 IC50
Method: (§1) Screening of 94 different cancer cell lines spanning over 18 human tissues was performed by Oncolead Ltd. The company used an identical platform to the one NIH, NCI-60 uses to assess the effect of a compound on the viability of a variety of tumour cell lines. Briefly, cells are treated with a series of six dilutions of a compound for 72 h (compound is replenished daily). After 72 h, cells were fixed (living cells are attached to the plate), and then washed to remove dead and dying cells. Cells were then stained with a dye (sulforhodamine B) that dyes all proteins purple, which is measured by a plate reader and provides quantification of living cells. The number of cells treated with the compound is compared to the number of cells treated with DMSO (solvent). The inhibitory concentration (IC) value was calculated by taking the number of cells after 72 h of treatment and dividing by the number of cells after 72 h treatment with DMSO (C). IC50 is the value calculated from the dose–response plot, which is the concentration of the compound that has 50% decrease of the IC. To determine the specificity of A4 killing for various types of cancer, a panel of 94 cancer cell lines representing 18 different types of cancers were tested. The IC50 values for each cell line treated with A4 were determined (Oncolead Ltd). The cancers that were most sensitive to A4 killing were of haematological origin (8/12 different cell lines), melanoma (3/5 lines), pancreatic cancer and 4/7 lung cancers. Importantly, peripheral blood mononuclear cells (PBMCs), representing healthy normal cells, and 184A1, a normal human epithelium mammary gland cell, were not killed by A4 (Fig. 5a, Supplementary Table 1 and Fig. 5cI, respectively). To explore whether the levels of XIAP and Bcl-2 protein affect the sensitivity to A4, we analysed the available web proteomes and looked for a correlation. While data regarding XIAP expression levels were found in most proteomes (28 of 32 proteomes), Bcl-2 expression data were only detected in few (9 of 32 proteomes) (data not shown). A significant correlation was found between XIAP expression levels (ratio to actin, GAPDH) and the sensitivity to A4 (IC50, µM) in breast, ovary and kidney carcinomas (Fig. 5bI, II and Supplementary Tables 1 and 2). Cancer cell lines with high levels of XIAP were particularly sensitive to the killing effect of A4 (Fig. 5bI, II and Supplementary Tables 1 and 2). […] To further confirm that A4 functions as a specific antagonist for XIAP, we performed a SKOV-3 rescue assay. SKOV-3 ovarian carcinoma cells are highly sensitive to SMs[49]. SMs act by antagonizing cIAPs, an event that leads to cell death when complemented by an XIAP-dependent increase in TNFα production[47],[48],[58]. In SKOV-3 cells, XIAP is required for TNFα production, which recruits cIAP into a complex that activates caspase-8 and apoptosis through the extrinsic pathway (Fig. 6a)[49]. Knockdown of XIAP in SKOV-3 cells bestowed resistance to SMs[49]. We utilized this assay to investigate the specificity of A4 for XIAP compared to cIAPs. Treatment with 1 μM of the SM Birinapant for […]

SW620 = test: cells; set-up: Sulforhodamine B growth/viability assay on tumour cell line panel (Oncolead), six dilutions, compound replenished daily; conditions: Homo sapiens, SW-620; 72 h, SRB; read-out: Supplementary table 1 / A4 IC50
Method: as §1

DLD1 = test: cells; set-up: Sulforhodamine B growth/viability assay on tumour cell line panel (Oncolead), six dilutions, compound replenished daily; conditions: Homo sapiens, DLD-1; 72 h, SRB; read-out: Supplementary table 1 / A4 IC50
Method: as §1

MDAMB436 = test: cells; set-up: Sulforhodamine B growth/viability assay on tumour cell line panel (Oncolead), six dilutions, compound replenished daily; conditions: Homo sapiens, MDA-MB-436; 72 h, SRB; read-out: Supplementary table 1 / A4 IC50
Method: as §1

COLO205 = test: cells; set-up: Sulforhodamine B growth/viability assay on tumour cell line panel (Oncolead), six dilutions, compound replenished daily; conditions: Homo sapiens, COLO 205; 72 h, SRB; read-out: Supplementary table 1 / A4 IC50
Method: as §1

MDAMB231 = test: cells; set-up: Sulforhodamine B growth/viability assay on tumour cell line panel (Oncolead), six dilutions, compound replenished daily; conditions: Homo sapiens, MDA-MB-231; 72 h, SRB; read-out: Supplementary table 1 / A4 IC50
Method: as §1

HEK293 = test: cells; set-up: Sulforhodamine B growth/viability assay on tumour cell line panel (Oncolead), six dilutions, compound replenished daily; conditions: Homo sapiens, HEK293; 72 h, SRB; read-out: Supplementary table 1 / A4 IC50
Method: as §1

UO31 = test: cells; set-up: Sulforhodamine B growth/viability assay on tumour cell line panel (Oncolead), six dilutions, compound replenished daily; conditions: Homo sapiens, UO-31; 72 h, SRB; read-out: Supplementary table 1 / A4 IC50
Method: as §1

HCT15 = test: cells; set-up: Sulforhodamine B growth/viability assay on tumour cell line panel (Oncolead), six dilutions, compound replenished daily; conditions: Homo sapiens, HCT-15; 72 h, SRB; read-out: Supplementary table 1 / A4 IC50
Method: as §1

MCF-7 = test: cells; set-up: Sulforhodamine B growth/viability assay on tumour cell line panel (Oncolead), six dilutions, compound replenished daily; conditions: Homo sapiens, MCF7; 72 h, SRB; read-out: Supplementary table 1 / A4 IC50
Method: as §1

786-0 = test: cells; set-up: Sulforhodamine B growth/viability assay on tumour cell line panel (Oncolead), six dilutions, compound replenished daily; conditions: Homo sapiens, 786-0; 72 h, SRB; read-out: Supplementary table 1 / A4 IC50
Method: as §1

HS578T = test: cells; set-up: Sulforhodamine B growth/viability assay on tumour cell line panel (Oncolead), six dilutions, compound replenished daily; conditions: Homo sapiens, Hs-578T; 72 h, SRB; read-out: Supplementary table 1 / A4 IC50
Method: as §1

OVCAR3 = test: cells; set-up: Sulforhodamine B growth/viability assay on tumour cell line panel (Oncolead), six dilutions, compound replenished daily; conditions: Homo sapiens, OVCAR-3; 72 h, SRB; read-out: Supplementary table 1 / A4 IC50
Method: as §1

Caki1 = test: cells; set-up: Sulforhodamine B growth/viability assay on tumour cell line panel (Oncolead), six dilutions, compound replenished daily; conditions: Homo sapiens, CAKI-1; 72 h, SRB; read-out: Supplementary table 1 / A4 IC50
Method: as §1

IGROV-1 = test: cells; set-up: Sulforhodamine B growth/viability assay on tumour cell line panel (Oncolead), six dilutions, compound replenished daily; conditions: Homo sapiens, IGROV-1; 72 h, SRB; read-out: Supplementary table 1 / A4 IC50
Method: as §1

SKBR3 = test: cells; set-up: Sulforhodamine B growth/viability assay on tumour cell line panel (Oncolead), six dilutions, compound replenished daily; conditions: Homo sapiens, SK-BR-3; 72 h, SRB; read-out: Supplementary table 1 / A4 IC50
Method: as §1

HT-29 = test: cells; set-up: Sulforhodamine B growth/viability assay on tumour cell line panel (Oncolead), six dilutions, compound replenished daily; conditions: Homo sapiens, HT-29; 72 h, SRB; read-out: Supplementary table 1 / A4 IC50
Method: as §1

SKOV-3 = test: cells; set-up: Sulforhodamine B growth/viability assay on tumour cell line panel (Oncolead), six dilutions, compound replenished daily; conditions: Homo sapiens, SK-OV-3; 72 h, SRB; read-out: Supplementary table 1 / A4 IC50
Method: as §1

MDAMB468 = test: cells; set-up: Sulforhodamine B growth/viability assay on tumour cell line panel (Oncolead), six dilutions, compound replenished daily; conditions: Homo sapiens, MDA-MB-468; 72 h, SRB; read-out: Supplementary table 1 / A4 IC50
Method: as §1

ACHN = test: cells; set-up: Sulforhodamine B growth/viability assay on tumour cell line panel (Oncolead), six dilutions, compound replenished daily; conditions: Homo sapiens, ACHN; 72 h, SRB; read-out: Supplementary table 1 / A4 IC50
Method: as §1

HCT116 = test: cells; set-up: Sulforhodamine B growth/viability assay on tumour cell line panel (Oncolead), six dilutions, compound replenished daily; conditions: Homo sapiens, HCT-116; 72 h, SRB; read-out: Supplementary table 1 / A4 IC50
Method: as §1

Caco-2 = test: cells; set-up: Sulforhodamine B growth/viability assay on tumour cell line panel (Oncolead), six dilutions, compound replenished daily; conditions: Homo sapiens, Caco-2; 72 h, SRB; read-out: Supplementary table 1 / A4 IC50
Method: as §1

LOVO = test: cells; set-up: Sulforhodamine B growth/viability assay on tumour cell line panel (Oncolead), six dilutions, compound replenished daily; conditions: Homo sapiens, LoVo; 72 h, SRB; read-out: Supplementary table 1 / A4 IC50
Method: as §1

OVCAR4 = test: cells; set-up: Sulforhodamine B growth/viability assay on tumour cell line panel (Oncolead), six dilutions, compound replenished daily; conditions: Homo sapiens, OVCAR-4; 72 h, SRB; read-out: Supplementary table 1 / A4 IC50
Method: as §1

T1 sequence (P98170 whole entry): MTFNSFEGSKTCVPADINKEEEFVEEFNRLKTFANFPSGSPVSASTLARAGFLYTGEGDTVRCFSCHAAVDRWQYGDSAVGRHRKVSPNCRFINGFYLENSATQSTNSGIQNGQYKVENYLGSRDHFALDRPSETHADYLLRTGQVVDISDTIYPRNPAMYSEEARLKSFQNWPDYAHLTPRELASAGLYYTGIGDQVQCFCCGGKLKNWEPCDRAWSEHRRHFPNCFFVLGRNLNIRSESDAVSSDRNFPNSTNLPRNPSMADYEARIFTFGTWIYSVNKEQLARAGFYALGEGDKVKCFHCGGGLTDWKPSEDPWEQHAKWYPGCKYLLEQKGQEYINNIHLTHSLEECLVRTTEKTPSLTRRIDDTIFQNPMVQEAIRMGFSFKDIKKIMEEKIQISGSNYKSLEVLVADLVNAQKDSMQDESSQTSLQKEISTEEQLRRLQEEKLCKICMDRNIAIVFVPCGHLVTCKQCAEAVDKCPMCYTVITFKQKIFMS

Kd (XIAP): 0.348 ± 0.228 µM | IC50 (COLO678): 14.4 µM | IC50 (SW620): 10.4 µM | IC50 (DLD1): 8.24 µM | IC50 (MDAMB436): 7.16 µM | IC50 (COLO205): 7.38 µM | IC50 (MDAMB231): 10.1 µM | IC50 (HCT15): 5.03 µM | IC50 (MCF-7): 4.61 µM | IC50 (786-0): 6.3 µM | IC50 (OVCAR3): 8.4 µM | IC50 (SKBR3): 7.98 µM | IC50 (HT-29): 1.84 µM | IC50 (SKOV-3): 13.6 µM | IC50 (MDAMB468): 6.22 µM | IC50 (ACHN): 5.99 µM | IC50 (HCT116): 11.2 µM | IC50 (Caco-2): 8.14 µM | IC50 (LOVO): 5.96 µM | IC50 (OVCAR4): 9.99 µM
Compound: COC(=O)c1[nH]c2ccc(Cl)cc2c1NC(=O)CN1CCN(Cc2ccccc2)CC1 [A4, methyl 5-chloro-3-[[2-[4-(phenylmethyl)piperazin-1-yl]acetyl]amino]-1H-indole-2-carboxylat]
IC50 (HEK293): 2.8 µM | IC50 (UO31): 6.48 µM | IC50 (HS578T): 9.56 µM | IC50 (Caki1): 8.14 µM | IC50 (IGROV-1): 8.08 µM
